# Tests used:
# [1] = in vitro; details: human, NCI-H292 cells
# Description: Cytotoxicity against human NCI-H292 cells assessed as reduction in viable cells by MTT assay
# [2] = tested on: Candida albicans; test: Antifungal activity against mature preformed Candida albicans ATCC 10231 biofilm by XTT reduction assay; format: functional
# [3] = tested on: Candida albicans; test: Inhibition of biofilm formation of Candida albicans ATCC 10231 by XTT reduction assay; format: functional
# [4] = tested on: Candida albicans; test: Antifungal activity against early stage preformed Candida albicans ATCC 10231 biofilm by XTT reduction assay; format: functional
# [5] = tested on: Candida albicans; test: Antifungal activity against planktonically grown Candida albicans ATCC 10231 by CLSI M27 A3 broth microdilution method; format: functional
# [6] = tested on: Candida albicans; test: Ratio of compound MIC to fluconazole MIC for biofilm formation of Candida albicans ATCC 10231 by XTT reduction assay; format: functional
Compound,CC50 [1],MIC50 [2],MIC50 [3],MIC50 [4],MIC50 [5],Ratio [6]
O=C(CCc1ccc(O)c(O)c1)OCc1ccc([N+](=O)[O-])o1,257 µg/mL,128 µg/mL,128 µg/mL,128 µg/mL,64 µg/mL,
O=C(/C=C/c1ccc(O)c(O)c1)OCc1ccc([N+](=O)[O-])o1,192 µg/mL,128 µg/mL,32 µg/mL,64 µg/mL,16 µg/mL,
CC(C)COC(=O)/C=C/c1ccc(O)c(O)c1,,256 µg/mL,256 µg/mL,,128 µg/mL,
O=C(/C=C/c1ccccc1)OCc1ccc([N+](=O)[O-])o1,174 µg/mL,64 µg/mL,32 µg/mL,32 µg/mL,2 µg/mL,
CCCOC(=O)/C=C/c1ccc(O)c(O)c1,,256 µg/mL,256 µg/mL,256 µg/mL,128 µg/mL,
O=C(OCc1ccc([N+](=O)[O-])o1)c1ccc(O)c(O)c1,132 µg/mL,64 µg/mL,16 µg/mL,64 µg/mL,16 µg/mL,8
COC(=O)/C=C/c1ccc(O)c(O)c1 [METHYLCAFFEATE],,256 µg/mL,256 µg/mL,,128 µg/mL,
OC(Cn1cncn1)(Cn1cncn1)c1ccc(F)cc1F [FLUCONAZOLE],,256 µg/mL,128 µg/mL,256 µg/mL,0.5 µg/mL,
CCOC(=O)/C=C/c1ccc(O)c(O)c1 [ETHYL CAFFEATE],,256 µg/mL,256 µg/mL,,128 µg/mL,
O=C(O)/C=C/c1ccc(O)c(O)c1 [CAFFEIC ACID],,256 µg/mL,256 µg/mL,256 µg/mL,128 µg/mL,
COc1ccc(OC(=O)/C=C/c2ccc(O)c(O)c2)cc1F,,256 µg/mL,256 µg/mL,,128 µg/mL,

# — ChEMBL document CHEMBL3124821, “Activity of caffeic acid derivatives against Candida albicans biofilm” (Bioorg Med Chem Lett, 2014)
